According to patent US20040171553A1, “Peptides fragments of colostrinin and their use” (priority 2000, published 2004):
Where “and” joins values, the source holds several entries; their conditions need not be identical. Equal values may be shown once.

Tests used:
rabbits = assay: Serum antibody titre by ELISA after immunisation of rabbits with the KHL-conjugated synthetic peptide; assay type: in vivo, rabbit; settings: ELISA against corresponding synthetic peptide antigen; for Titre: (Serum Dilution) Post Immunization R1: rabbit R1, after the 10 week immunisation protocol; for Titre: (Serum Dilution) Pre Immunization R1: rabbit R1, before immunisation
Description: To each N-terminal end of the synthetic peptides, L-cysteine was attached, and the peptide was formed into a ring so that the cysteine group lay between the N-terminal and the C-terminal ends of the synthetic peptide. This facilitated peptide conjugation with Keyhole Hemolymph (KHL).
For immunisation, two young adult rabbits (5-6 months old, weighing 5-6 lbs [2.3-2.7 kg]) were used. Each antigen (i.e., each synthetic peptide) was given subcutaneously and intramuscularly in 0.1 ml injections at ten different sites. The protocol used followed the following sequence:
The level of antibodies in the serum was established by ELISA (enzyme-linked immunosorbent assay) with the corresponding synthetic peptide antigen. This technique involved the following steps:
1. The antigen was diluted with a 0.1 M bicarbonate buffer (pH 9.0) to yield a 10 μg of antigen/ml solution. A volume of 50 μl of this solution was placed into each microwell of a 96 well plate.
2. The plates were covered and incubated at 37° C. for 3 hours.
3. The wells were washed with a coupling buffer and blocked using 200 μl of Pierce standard solution of BSA (bovine serum albumin).
4. 50 μl of dilutent BSA (0.75% soln.) was pipetted into each well. 50 μl of antibody serum sample diluted 1:100 in dilutent BSA were placed in lane A of each row.
5. 1:2 serial dilutions were performed moving down the plate.
6. The plates were covered and incubated at room temperature for 60 minutes.
7. The plates were washed four times with PBS wash solution.
8. A volume of 50 μl of goat anti-rabbit IgG (H&L) HRP conjugate at 1:1000 dilution in BSA was pipetted into each well and incubated at room temperature for 60 minutes (H&L=heavy and light chain; HRP=horseradish peroxidase).
9. The plates were washed four times with PBS wash solution.
10. A volume of 50 μl of substrate solution 2,2′-azino-bis(3-ethylbenzothiazoline-6-sulfonic acid)-diammonium salt (ABTS available from Pierce, which is used to help visualise the extent of the antibody/antigen reaction) was pipetted into each well and incubated at room temperature for about 2 minutes.
11. The reaction was stopped by adding 50 μl of 1% SDS (sodium dodecyl sulfate) into each well.
12. The wells were then read on a dynoplate reader at 405.
The data presented in Table 3 show the serum antibody titers against specific antibodies after the 10 week immunisation protocol.

[1] = tested on: beta-amyloid precursor protein; assay: Ischemia-induced beta-amyloid precursor protein accumulation in rats, immunostaining with monoclonal antibodies; assay type: in vivo; set-up: Jonas C-terminal APP / Beringer- terminal APP / 511-608 APP ALZ 90 / Total: scale not given here; settings: ischemic rats; for β-amyloid plaque level, overall result in words: summary of Table 4; for Jonas C-terminal APP: C-terminal end of precursor protein; for Total: sum of the three APP immunostaining levels
Source text: Ischemia was induced in rats in order to encourage the development of the beta-amyloid precursor proteins. The rats were then subjected to a variety of treatment regimes, and the degree of the beta-amyloid precursor protein presence was investigated. The general technique is described in “Complete cerebral ischemia with short-term survival in rats induced by cardiac arrest. I. Extracellular accumulation of Alzheimer's β-amyloid protein precursor in the brain.”, Pluta, R. et al, Brain Research 649 (1994) 323-328.
The treatment regime varied in terms of the length of time ischemia was induced, and the length of time treatment was applied.
The Colostrinin was obtained by conventional techniques, as described, for example, in WO98/14473. The peptides were produced using the method described in Example 1. The control was not subjected to any treatment.
Each column represents the results if the immunostaining with specific monoclonal antibodies directed against fragments of amyloid or its N and C precursor protein.

[2] = β-amyloid plaque level, immunostaining

ESYVPLFP [Peptide 5]
Titre: (Serum Dilution) Post Immunization R1 (rabbits): 25600 | Titre: (Serum Dilution) Pre Immunization R1 (rabbits): 0 | β-amyloid plaque level, overall result in words [1]: particularly good results | Beringer- terminal APP ([1]; β-amyloid plaque level, N-terminal end of precursor protein, immunostaining): 2 and 4

FLPVVN [Peptide 2]
Titre: (Serum Dilution) Post Immunization R1 (rabbits): 12800 | Titre: (Serum Dilution) Pre Immunization R1 (rabbits): 0

LLYQEPV [Peptide 6]
Titre: (Serum Dilution) Post Immunization R1 (rabbits): 25600 | Titre: (Serum Dilution) Pre Immunization R1 (rabbits): 0

LPLPLVRS [Peptide 10]
Titre: (Serum Dilution) Post Immunization R1 (rabbits): 25600 | Titre: (Serum Dilution) Pre Immunization R1 (rabbits): 0

PKLKVEVPEP [Peptide 4]
Titre: (Serum Dilution) Post Immunization R1 (rabbits): 25600 | Titre: (Serum Dilution) Pre Immunization R1 (rabbits): 0

PLPPTVMFPPQ [Peptide 8]
Titre: (Serum Dilution) Post Immunization R1 (rabbits): 25600 | Titre: (Serum Dilution) Pre Immunization R1 (rabbits): 0

PVLPVEPFPF [Peptide 3]
Titre: (Serum Dilution) Post Immunization R1 (rabbits): 12800 | Titre: (Serum Dilution) Pre Immunization R1 (rabbits): 0 | β-amyloid plaque level, overall result in words [1]: particularly good results | Jonas C-terminal APP [1, 2]: 1 and 2

PVVVPPFLQ [Peptide 9]
Titre: (Serum Dilution) Post Immunization R1 (rabbits): 25600 | Titre: (Serum Dilution) Pre Immunization R1 (rabbits): 0 | Total [1]: 8 and 5 and 6 | Jonas C-terminal APP [1, 2]: 3 and 2

QPKVLPVPQ [Peptide 7]
Titre: (Serum Dilution) Post Immunization R1 (rabbits): 25600 | Titre: (Serum Dilution) Pre Immunization R1 (rabbits): 0 | Total [1]: 11 and 10 and 9 | 511-608 APP ALZ 90 ([1]; β-amyloid plaque level, 511-608 position of precursor protein, immunostaining): 4 and 5 | Jonas C-terminal APP [1, 2]: 3

QPLLQVMMEPQ [Peptide 1]
Titre: (Serum Dilution) Post Immunization R1 (rabbits): 12800 | Titre: (Serum Dilution) Pre Immunization R1 (rabbits): 0 | β-amyloid plaque level, overall result in words [1]: particularly good results | Jonas C-terminal APP [1, 2]: 1 and 2
